This is an account of results in CN114790169A, “四氢喹啉相关二环类化合物及其应用” (Guangzhou Institute of Biomedicine and Health of CAS, priority 2016, dated 2017).

The target in one series is T1, RORα (Homo sapiens, UniProt P35398).
T1 sequence (P35398 1-523): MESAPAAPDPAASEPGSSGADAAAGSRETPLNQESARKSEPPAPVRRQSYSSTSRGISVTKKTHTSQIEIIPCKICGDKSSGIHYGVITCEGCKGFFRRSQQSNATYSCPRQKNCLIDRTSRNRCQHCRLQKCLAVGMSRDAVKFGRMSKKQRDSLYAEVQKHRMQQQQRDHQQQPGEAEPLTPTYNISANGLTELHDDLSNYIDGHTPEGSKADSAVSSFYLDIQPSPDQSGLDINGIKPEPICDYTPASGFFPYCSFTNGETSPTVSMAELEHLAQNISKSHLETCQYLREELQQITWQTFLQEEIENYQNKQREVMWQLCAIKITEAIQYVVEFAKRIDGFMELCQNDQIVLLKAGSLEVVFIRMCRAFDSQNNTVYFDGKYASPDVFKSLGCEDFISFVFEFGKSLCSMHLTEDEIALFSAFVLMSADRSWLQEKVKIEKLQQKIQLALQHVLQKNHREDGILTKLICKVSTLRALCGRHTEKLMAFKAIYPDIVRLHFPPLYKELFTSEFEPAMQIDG
The conditions noted are these: literature, in words; cited from earlier work.

For series [1], the target named is T2, nuclear receptor RORγ [核受体RORγ] (Homo sapiens, UniProt P51449).
T2 construct: 重组质粒:Gal4-RORγLBD:25ng; expressed in transfected cells; host or cells: 293T (human kidney epithelial cell line)
T2 sequence (P51449 269-508 limits assumed): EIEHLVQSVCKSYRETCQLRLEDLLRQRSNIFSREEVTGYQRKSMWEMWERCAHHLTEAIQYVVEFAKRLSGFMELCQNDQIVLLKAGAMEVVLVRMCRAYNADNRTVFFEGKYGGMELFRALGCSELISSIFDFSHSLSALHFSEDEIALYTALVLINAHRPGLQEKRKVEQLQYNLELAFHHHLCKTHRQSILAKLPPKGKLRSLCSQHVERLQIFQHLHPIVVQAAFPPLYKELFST
The series is described as follows: Dual-luciferase reporter assay, inhibition of nuclear receptor RORγ at cell level in 293T cells (Gal4-RORγLBD). The format is cell-based. The conditions noted are these: for IC50: inhibitory activity against RORγ at cell level, 293T cells, 24 h incubation with compound; for inhibitory activity compared with reference drug: luciferase, RORγ cell level, reference drug T1317. Background: A reporter such as luciferase makes a cellular process visible.

For series [2], the target named is T3, glucocorticoid receptor [糖皮质激素受体] (Homo sapiens, UniProt P04150).
T3 sequence (P04150 1-777): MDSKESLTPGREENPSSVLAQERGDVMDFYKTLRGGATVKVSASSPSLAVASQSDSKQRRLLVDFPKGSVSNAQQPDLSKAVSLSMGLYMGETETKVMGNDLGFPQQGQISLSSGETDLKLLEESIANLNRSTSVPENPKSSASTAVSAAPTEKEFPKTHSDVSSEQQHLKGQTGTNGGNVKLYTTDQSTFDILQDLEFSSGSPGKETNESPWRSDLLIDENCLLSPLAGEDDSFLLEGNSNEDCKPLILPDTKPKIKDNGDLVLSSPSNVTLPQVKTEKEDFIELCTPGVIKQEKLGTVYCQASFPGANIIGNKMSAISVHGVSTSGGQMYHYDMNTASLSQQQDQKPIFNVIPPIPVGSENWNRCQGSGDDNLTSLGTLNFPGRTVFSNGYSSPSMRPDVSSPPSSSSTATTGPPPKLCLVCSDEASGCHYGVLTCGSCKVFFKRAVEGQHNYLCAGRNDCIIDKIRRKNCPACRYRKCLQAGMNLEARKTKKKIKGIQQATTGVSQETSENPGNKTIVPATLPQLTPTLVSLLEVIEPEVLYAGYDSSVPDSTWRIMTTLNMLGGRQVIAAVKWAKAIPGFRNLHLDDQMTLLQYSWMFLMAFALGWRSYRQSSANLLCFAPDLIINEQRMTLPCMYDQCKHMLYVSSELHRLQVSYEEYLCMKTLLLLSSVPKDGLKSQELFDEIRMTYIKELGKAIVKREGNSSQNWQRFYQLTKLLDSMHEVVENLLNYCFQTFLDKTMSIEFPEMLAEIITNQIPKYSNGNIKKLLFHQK
The conditions noted are these: literature, in words; cited from earlier work.

Series [3] relates to other nuclear receptors (LXRα/β, FXR, PXR) [其他核受体 (LXRα/β,FXR,PXR)]. The conditions noted are these: literature, in words; cited from earlier work.
The conditions of series [4]: literature, in words; cited from earlier work.
Another series deals with T4, RORγ (Homo sapiens, UniProt P51449).
T4 sequence (P51449 1-518): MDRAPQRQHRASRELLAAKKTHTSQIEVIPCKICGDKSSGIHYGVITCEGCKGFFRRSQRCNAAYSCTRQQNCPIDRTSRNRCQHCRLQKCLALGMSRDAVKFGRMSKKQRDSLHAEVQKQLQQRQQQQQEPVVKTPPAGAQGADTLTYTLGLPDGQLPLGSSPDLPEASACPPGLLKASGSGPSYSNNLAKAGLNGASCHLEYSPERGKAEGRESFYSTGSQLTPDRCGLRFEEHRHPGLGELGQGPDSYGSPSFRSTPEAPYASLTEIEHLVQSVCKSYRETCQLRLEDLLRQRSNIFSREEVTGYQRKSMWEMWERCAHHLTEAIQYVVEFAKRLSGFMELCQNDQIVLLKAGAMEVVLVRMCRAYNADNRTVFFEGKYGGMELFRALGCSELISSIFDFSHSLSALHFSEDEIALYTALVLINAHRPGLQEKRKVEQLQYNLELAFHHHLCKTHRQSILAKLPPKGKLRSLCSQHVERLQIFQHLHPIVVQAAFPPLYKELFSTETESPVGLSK
The conditions noted are these: literature, in words; cited from earlier work.

The IC50 is the concentration at which inhibition is half-maximal.

For `CC(=O)Nc1nc(C)c(S(=O)(=O)Nc2ccc(C(O)(C(F)(F)F)C(F)(F)F)cc2)s1` [SR1001], the “action on RORα” value at RORα is given as “对RORγ和RORα有双重作用的反向激动剂”.

Turning to `COC(=O)c1ccccc1S(=O)(=O)N1CCCc2ccc(NS(=O)(=O)c3c(Cl)cccc3Cl)cc21` [实施例54, 2-((7-(2,6-二氯苯基磺酰氨基)-3,4-二氢喹啉-1(2H)-基)磺酰基)苯甲酸甲酯], the IC50 in series [1] came to 230 nM.

`COC(=O)c1ccccc1S(=O)(=O)N1CCCc2ccc(NS(=O)(=O)c3cc(OC)ccc3OC)cc21` [实施例56, 2-((7-((2,5-二甲氧基苯基)磺酰氨基)-3,4-二氢喹啉-1(2H)-基) 磺酰基)苯甲酸甲酯]: in series [1], the 50% inhibitory concentration (IC50) amounted to 160 nM.

As to `C[C@H]1[C@H](C)CC[C@]2(C(=O)O)CC[C@]3(C)C(=CC[C@@H]4[C@@]5(C)CC[C@H](O)C(C)(C)[C@@H]5CC[C@]43C)[C@H]12` [熊果酸], the “action on glucocorticoid receptor” value in series [2] is “对糖皮质激素受体也有作用”.

For `O=S(=O)(Nc1ccc2c(c1)N(S(=O)(=O)Cc1ccc(F)cc1)CCC2)c1ccc(F)cc1F` [实施例28, 2,4-二氟-N-(1-((4-氟苄基)磺酰基)-1,2,3,4-四氢喹啉-7-基)苯磺酰胺], in series [1], the 50% inhibitory concentration (IC50) is 740 nM.

As to `COC(=O)c1ccccc1S(=O)(=O)N1CCCc2ccc(NS(=O)(=O)c3ccc(OC)cc3)cc21` [实施例55, 2-((7-((4-甲氧基苯基)磺酰氨基)-3,4-二氢喹啉-1(2H)-基)磺酰基)苯甲酸甲酯], in series [1], the concentration for half-maximal inhibition (IC50) was 410 nM.

Take `COC(=O)c1cccc(CS(=O)(=O)N2CCCc3ccc(NS(=O)(=O)c4ccc(F)cc4F)cc32)c1` [实施例30, 3-(((7-(2,4-二氟苯基磺酰氨基)-3,4-二氢喹啉-1(2H)-基)磺酰基)甲基)苯甲酸甲酯]: the IC50 in series [1] was 930 nM.

Regarding `COC(=O)c1cccc(CS(=O)(=O)Nc2ccc3c(c2)N(S(=O)(=O)c2ccc(F)cc2)CCC3)c1` [实施例24, 3-((N-(1-((4-氟苯基)磺酰基)-1,2,3,4-四氢喹啉-7-基)氨磺酰)甲基)苯甲酸甲酯], the “inhibitory activity compared with reference drug” value in series [1] is reported as “比对照药活性相当”.

Take `O=S(=O)(Nc1ccc(C(O)(C(F)(F)F)C(F)(F)F)cc1)c1cccs1` [SR3335]: on RORα, the “action on RORα” value is “RORα的选择性反向激动剂”.

`COC(=O)c1ccccc1S(=O)(=O)N1CCCc2ccc(NS(=O)(=O)c3cccc(Cl)c3F)cc21` [实施例53, 2-((7-(3-氯-2-氟苯基磺酰氨基)-3,4-二氢喹啉-1(2H)-基)磺酰基)苯甲酸甲酯]: the IC50 in series [1] worked out at 790 nM.

`O=S(=O)(Nc1ccc2c(c1)N(S(=O)(=O)c1cccs1)CCC2)c1ccc2c(c1)OCCO2` [实施例48, N-(1-(噻吩-2-基磺酰基)-1,2,3,4-四氢喹啉-7-基)-2,3-二氢苯并[b][1,4]二氧杂环己烯-6-磺酰胺]: the IC50 in series [1] amounted to 580 nM.

For `COC(=O)c1ccccc1S(=O)(=O)N1CCCc2ccc(NS(=O)(=O)c3ccc4c(c3)OCCO4)cc21` [实施例52, 2-((7-(2,3-二氢苯并[b][1,4]二氧杂环己烯-6-磺酰基)-3,4-二氢喹啉-1(2H) -基)磺酰基)苯甲酸甲酯], in series [1], the IC50 was 700 nM.

For the compound `Cc1ccc(S(=O)(=O)Nc2ccc3c(c2)N(S(=O)(=O)c2ccc(F)cc2)CCC3)s1` [实施例5, N-(1-((4-氟苯基)磺酰基)-1,2,3,4-四氢-7-基)-5-甲基噻吩-2-磺酰胺], the IC50 in series [1] amounted to 740 nM.

For `O=S(=O)(c1ccccc1)N(CC(F)(F)F)c1ccc(C(O)(C(F)(F)F)C(F)(F)F)cc1` [T1317], the “action on other nuclear receptors” value in series [3] is on record as “还与至少四种其他核受体 (LXRα/β,FXR,PXR)有作用”. Further, on RORα, the “action on RORα” value is recorded as “可以与RORγ和RORα结合并调控它们的活性”.

For `CS(=O)(=O)c1cccc(S(=O)(=O)Nc2ccc3c(c2)N(S(=O)(=O)c2ccc(F)cc2)CCC3)c1` [实施例22, N-(1-((4-氟苯基)磺酰基)-1,2,3,4-四氢喹啉-7-基)-3-(甲基磺酰基)苯磺酰胺], the “inhibitory activity compared with reference drug” value in series [1] was “比对照药活性相当”.

Regarding “N-(1-(噻吩-2-基磺酰基)-1,2,3,4-四氢喹啉-6-基)-2,3-二氢苯并[b][1,4]二氧杂环己烯 -6-磺酰胺 [实施例66]”, the 50% inhibitory concentration (IC50) in series [1] was found to be 900 nM.

Take `O=S(=O)(Nc1ccc2c(c1)N(S(=O)(=O)c1ccc(F)cc1)CCO2)c1ccc2c(c1)OCCO2` [实施例12, N-(4-((4-氟苯基)磺酰基)-3,4-二氢-2H-苯并[b][1,4]恶嗪-6-基)-2,3-二氢苯并[b] [1,4]二氧杂环己烯-6-磺酰胺]: in series [1], the 50% inhibitory concentration (IC50) stood at 690 nM.

With `C[C@H]1O[C@@H](O[C@H]2[C@@H](O)C[C@H](O[C@H]3[C@@H](O)C[C@H](O[C@H]4CC[C@@]5(C)[C@H](CC[C@@H]6[C@@H]5C[C@@H](O)[C@]5(C)[C@@H](C7=CC(=O)OC7)CC[C@]65O)C4)O[C@@H]3C)O[C@@H]2C)C[C@H](O)[C@@H]1O` [地高辛], the side effects entry in series [4] is “有很强的副作用”. Further, on RORγ, the “action on RORγ” value is reported as “可以作为RORγ的选择性调控物质”.

Take `COC(=O)c1ccc(S(=O)(=O)Nc2ccc3c(c2)N(S(=O)(=O)c2ccc(F)cc2)CCC3)cc1` [实施例19, 4-(N-(1-((4-氟苯基)磺酰基)-1,2,3,4-四氢喹啉-7-基)氨磺酰)苯甲酸甲酯]: in series [1], the IC50 was 880 nM.

Consider `O=S(=O)(Nc1ccc2c(c1)N(S(=O)(=O)c1ccc(F)cc1)CCC2)c1ccc2c(c1)OCCO2` [实施例8, N-(1-((4-氟苯基)磺酰基)-1,2,3,4-四氢喹啉-7-基)-2,3-二氢苯并[b][1,4] 二氧杂环己烯-6-磺酰胺], for which, in series [1], the IC50 worked out at 790 nM.

Take `COC(=O)c1ccc(CS(=O)(=O)Nc2ccc3c(c2)N(S(=O)(=O)c2ccc(F)cc2)CCC3)cc1` [实施例23, 4-((N-(1-((4-氟苯基)磺酰基)-1,2,3,4-四氢喹啉-7-基)氨磺酰)甲基)苯甲酸甲酯]: the IC50 in series [1] was 940 nM.

Regarding `COC(=O)c1ccccc1S(=O)(=O)N1CCCc2ccc(NS(=O)(=O)c3ccc(F)cc3F)cc21` [实施例31, 2-((7-(2,4-二氟苯基磺酰氨基)-3,4-二氢喹啉-1(2H)-基)磺酰基)苯甲酸甲酯], in series [1], the half-inhibitory concentration (IC50) came to 160 nM and the “inhibitory activity compared with reference drug” value is recorded as “比对照药活性更好”.
